In brackets after ≈: the same amount, converted by molar mass. Each block holds one compound with its values, some of them ahead of it.
Legend:
SK-OV-3 = experiment: Antiproliferative activity against human SKOV3 cells assessed as reduction in cell viability after 48 hrs by CCK8 assay; type: functional, cell-based; conditions: SK-OV-3, 48 h
OVCAR-3 [1] = experiment: Antiproliferative activity against human OVCAR3 cells assessed as reduction in cell viability after 48 hrs by CCK8 assay; type: functional, cell-based; conditions: OVCAR-3, 48 h
HT-29 [2] = experiment: Antiproliferative activity against human HT-29 cells assessed as reduction in cell viability; type: functional, cell-based
OVCAR-3 [3] = experiment: Antiproliferative activity against human OVCAR3 cells assessed as reduction in cell viability; type: functional, cell-based
OVCAR-8 = experiment: Antiproliferative activity against human OVCAR8 cells assessed as reduction in cell viability; type: functional, cell-based
HT-29 [4] = experiment: Antiproliferative activity against human HT-29 cells assessed as reduction in cell viability after 3 days by SRB assay; type: functional, cell-based; conditions: HT-29, 72 h
[5] = Inhibition of chymotrypsin-like proteasome (unknown origin) using Suc-LLVY-AMC as substrate by fluorescence based assay; parameters: species or system Homo sapiens
SNB-19 = experiment: Antiproliferative activity against human SNB19 cells; type: functional, cell-based
A549 = experiment: Antiproliferative activity against human A549 cells assessed as reduction in cell viability after 72 hrs by MTT assay; type: functional, cell-based; conditions: A549, 72 h
HT-3 = experiment: Antiproliferative activity against human HT3 cells assessed as reduction in cell viability after 6 days by MTT assay; type: functional, cell-based; conditions: HT-3, 144 h
HeLa = experiment: Antiproliferative activity against human HeLa cells assessed as reduction in cell viability; type: functional, cell-based
KB [6] = experiment: Antiproliferative activity against human KB/HeLa cells assessed as reduction in cell viability; type: functional, cell-based
HEp-2 = experiment: Antiproliferative activity against human Hep2 cells by MTT assay; type: functional, cell-based
KB [7] = experiment: Antiproliferative activity against human KB cells assessed as reduction in cell viability; type: functional, cell-based
DU-145 = experiment: Antiproliferative activity against human DU145 cells assessed as reduction in viability after 48 hrs by MTTS assay; type: functional, cell-based; conditions: DU-145, 48 h
P388 = experiment: Antiproliferative activity against mouse P388 cells assessed as reduction in cell viability; type: functional, cell-based; conditions: read-out: ED50 (the source's name)
Col2 = experiment: Antiproliferative activity against human Col2 cells assessed as reduction in cell viability; type: functional, cell-based
A-431 = experiment: Antiproliferative activity against human A431 cells assessed as reduction in cell viability; type: functional; conditions: read-out: ED50 (the source's name)
[8] = Antiproliferative activity against human BC1 cells assessed as reduction in cell viability; type: functional; conditions: read-out: ED50 (the source's name)
KB-V1 = experiment: Antiproliferative activity against human KBV1 cells assessed as reduction in cell viability; type: functional; conditions: read-out: ED50 (the source's name)
[9] = Antiproliferative activity against human U373 cells assessed as reduction in cell viability; type: functional, U-373MG ATCC; conditions: U373 MG, read-out: ED50 (the source's name)
HT = experiment: Antiproliferative activity against human HT cells assessed as reduction in cell viability; type: functional; conditions: read-out: ED50 (the source's name)
[10] = biological target: Tyrosine-protein phosphatase non-receptor type 1 (Homo sapiens, UniProt P18031); experiment: Inhibition of recombinant human PTP1B (1 to 322 residues) expressed in Escherichia coli assessed as reduction in p-nitrophenol formation using p-nitrophenyl phosphate as substrate incubated for 30 mins by spectrophotometric method
[11] = Toxicity in po dosed mouse; type: organism-based; conditions: in vivo
HL-60 = experiment: Antiproliferative activity against human HL60 cells assessed as reduction in cell viability after 3 days by trypan blue dye based hemocytometer counting method; type: functional; conditions: HL-60, 72 h
MDA-MB-231 = experiment: Antitumour activity against human MDA-MB-231 cells xenografted in Nu/Nu mouse at 10 mg/kg, iv for 6 times at 2 days interval; type: functional
[12] = Antiproliferative activity against mouse Sch10545 cells incubated for 72 hrs by resazurin dye based fluorescence assay; type: functional, cell-based
[13] = Antiproliferative activity against human Ben-Men-1 cells incubated for 72 hrs by resazurin dye based fluorescence assay; type: functional, cell-based
WRL68 = experiment: Cytotoxicity against human WRL68 cells assessed as reduction in viability; type: cell-based
SK-HEP1 = experiment: Cytotoxicity against human SKHEP1 cells assessed as reduction in viability; type: functional, cell-based

Sequence of Tyrosine-protein phosphatase non-receptor type 1 (P18031 whole entry, the tested form may be a part): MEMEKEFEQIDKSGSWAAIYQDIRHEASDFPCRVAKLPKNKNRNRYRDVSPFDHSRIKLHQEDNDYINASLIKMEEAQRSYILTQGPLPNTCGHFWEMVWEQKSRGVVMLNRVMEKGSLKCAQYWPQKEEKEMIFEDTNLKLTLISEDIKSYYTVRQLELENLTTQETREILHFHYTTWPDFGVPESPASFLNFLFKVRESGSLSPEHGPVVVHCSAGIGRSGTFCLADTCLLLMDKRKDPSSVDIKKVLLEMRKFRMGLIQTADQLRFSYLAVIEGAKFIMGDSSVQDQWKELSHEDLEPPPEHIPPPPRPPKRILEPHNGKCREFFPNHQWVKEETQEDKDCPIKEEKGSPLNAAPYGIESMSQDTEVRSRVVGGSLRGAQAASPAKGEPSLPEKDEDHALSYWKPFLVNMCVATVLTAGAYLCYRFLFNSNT

- IC50 (SK-OV-3): > 10 µM
- IC50 (OVCAR-3 [1]): > 10 µM
Compound: O=c1c2cc(O)ccc2oc2cccc(O)c12

Compound: COc1cc2c(O[C@@H]3O[C@H](CO)[C@@H]4OC(C)(C)O[C@@H]4[C@H]3O)c3c(c(-c4ccc5c(c4)OCO5)c2cc1OC)C(=O)OC3
- IC50 (HT-29 [2]): 0.043 µM
- IC50 (OVCAR-3 [3]): 0.0042 µM
- IC50 (OVCAR-8): 0.004 µM

- IC50 (HT-29 [4]): > 10 µM
- IC50 [5]: 1.3 µM
Compound: O=C1c2c(O)cc(O)cc2O[C@@H](c2ccc(O)cc2)[C@@H]1c1c(O)cc(O)c2c(=O)cc(-c3ccc(O)c(O)c3)oc12

- IC50 (HT-29 [2]): > 10 µM
Compound: C=C(C)[C@@]1(O)O[C@H]2C[C@@]3(C)OC(=CC3=O)/C(C)=C\[C@H]3OC(=O)[C@@]1(C)[C@@H]23
- IC50 (SNB-19): 100 µM

- IC50 (HT-29 [2]): 1.4 µM
Compound: C=C1C(=O)O[C@@H]2/C=C(/C)C3=CC(=O)[C@@](C)(C[C@H](OC(=O)/C(C)=C\C)[C@@H]12)O3
- IC50 (SNB-19): 13.8 µM

- IC50 (A549): 0.01 µM
Compound: COC[C@H]1O[C@@H](Oc2c3c(c(-c4ccc5c(c4)OCO5)c4cc(OC)c(OC)cc24)C(=O)OC3)[C@H](OC)[C@@H](OC)[C@H]1OC

- IC50 (A549): 0.05 µM
Compound: COC[C@H]1O[C@@H](Oc2c3c(c(-c4ccc5c(c4)OCO5)c4cc(OC)c(OC)cc24)C(=O)OC3)[C@H](OC)[C@@H](OC)[C@@H]1OC

Compound: COc1ccc(-c2c3c(c(O)c4cc5c(cc24)OCO5)COC3=O)cc1OC
- IC50 (HT-3): > 10 µg/mL

- IC50 (HeLa): > 10 µM
Compound: O=c1cc(-c2ccc(O)c(-c3c(O)cc(O)c4c(=O)cc(-c5ccc(O)cc5)oc34)c2)oc2cc(O)cc(O)c12 [AMENTOFLAVONE]

Compound: CC[C@H](CC[C@@H](C)[C@H]1CC[C@H]2[C@@H]3CC=C4C[C@@H](O)CC[C@]4(C)[C@H]3CC[C@]12C)C(C)C [BETA-SITOSTEROL]
- IC50 (KB [6]): > 242 µM
- IC50 (HEp-2): 11.4 µM
- IC50 (KB [7]): > 10 µg/mL

Compound: C[C@]12CC[C@H]3[C@@H](CC[C@H]4C[C@@H](O)[C@H](O)C[C@@]43C=O)[C@@]1(O)CC[C@@H]2C1=CC(=O)OC1 [CALOTROPAGENIN]
- IC50 (DU-145): 0.48 µM

Compound: C[C@@H]1C[C@H](O)[C@]2(O)O[C@@H]3C[C@@]4(C=O)[C@@H](CC[C@@H]5[C@@H]4CC[C@]4(C)[C@@H](C6=CC(=O)OC6)CC[C@]54O)C[C@H]3O[C@@H]2O1 [CALOTROPIN]
- IC50 (DU-145): 0.03 µM

- EC50 (P388): 0.33 to 1.56 µM
- IC50 (HT-29 [2]): > 10 µM
- EC50 (A-431): 0.33 to 1.56 µM
- EC50 (KB [6]; read-out: ED50 (the source's name)): 0.33 to 1.56 µM
- EC50 (KB-V1): 2.14 µM
Compound: COc1cc(-c2oc3cc(OC)c(OC)c(O)c3c(=O)c2OC)ccc1O [CHRYSOSPLENOL B]
- IC50 (Col2): > 10 µg/mL
- EC50 [8]: 0.33 to 1.56 µM
- EC50 [9]: 0.33 to 1.56 µM
- EC50 (HT): 0.33 to 1.56 µM

Compound: CC(C)=CC[C@]12OC(C)(C)[C@H]3C[C@H](C=C4C(=O)c5c(O)cc(O)cc5O[C@@]431)C2=O [COCHINCHINOXANTHONE]
- IC50 [10]: 6.6 µM

Compound: C[C@H]1O[C@@H](O[C@H]2[C@@H](O)C[C@H](O[C@H]3[C@@H](O)C[C@H](O[C@H]4CC[C@@]5(C)[C@H](CC[C@@H]6[C@@H]5CC[C@]5(C)[C@@H](C7=CC(=O)OC7)CC[C@]65O)C4)O[C@@H]3C)O[C@@H]2C)C[C@H](O)[C@@H]1O [DIGITOXIN]
- LD50 [11]: 10 to 80 mg/kg

Compound: CC(C)=CCC[C@]1(C)C=Cc2c(O)c3c(c(CC=C(C)C)c2O1)O[C@]12C(=C[C@@H]4C[C@H]1C(C)(C)O[C@@]2(C/C=C(/C)C(=O)O)C4=O)C3=O [GAMBOGIC ACID]
- IC50 (HL-60): 0.17 µM
- fold change (FC) (MDA-MB-231): 1.31

Compound: C=C(C)C(=O)O[C@H]1C[C@@]2(C)OC(=CC2=O)/C(CO)=C\[C@H]2OC(=O)C(=C)[C@H]12 [GOIAZENSOLIDE]
- IC50 [12]: 1 µM
- IC50 [13]: 1 µM

Compound: COc1cc2c(OC)c3c(c(-c4ccc5c(c4)OCO5)c2cc1OC)C(=O)OC3 [JUSTICIDIN A]
- IC50 (HT-3): 0.0018 µg/mL (≈ 0.00456 µM)

Compound: COc1c(O)cc2oc3cc(O)c(CC=C(C)C)c(O)c3c(=O)c2c1CC=C(C)C [MANGOSTIN]
- IC50 (WRL68): 158 µM
- IC50 (SK-HEP1): 19.6 µM

Source: ChEMBL document CHEMBL4354794, “Potential Anticancer Agents Characterized from Selected Tropical Plants” (J Nat Prod, 2019)
